Assay results published in ChEMBL document CHEMBL3870345, “Bioactive chemical constituents from the root bark of Morus australis” (Bioorg Med Chem Lett, 2017).
pIC50: −log10 of the molar value. In brackets after ≈: the same amount, converted by molar mass.

How the values were obtained:
[1] = Antiplatelet aggregatory activity against New Zealand white rabbit platelets at 10 uM preincubated for 2 to 3 mins followed by PAF-addition measured after 4 mins by turbidometric method relative to vehicle control; type: functional, Oryctolagus cuniculus, Platelet
RAW264.7 [2] = assay: Inhibition of LPS-induced NO production in mouse RAW264.7 cells at 6.25 ug/ml measured after 24 hrs by Griess assay relative to LPS-treated control; type: functional; settings: RAW264.7, 24 h
[3] = Antiplatelet aggregatory activity against New Zealand white rabbit platelets preincubated for 2 to 3 mins followed by ADP-addition measured after 4 mins by turbidometric method; type: functional, cell-based, Oryctolagus cuniculus; settings: platelet
[4] = Cytotoxicity against mouse RAW264.7 cells assessed as cell viability at 12.5 ug/ml measured after 24 hrs in presence of LPS by MTT assay (reference value: 96.3 +/- 1%); type: toxicity; settings: read-out: Activity
[5] = Antiplatelet aggregatory activity against New Zealand white rabbit platelets at 100 uM preincubated for 2 to 3 mins followed by arachidonic acid -addition measured after 4 mins by turbidometric method relative to vehicle control; type: functional, Oryctolagus cuniculus, Platelet
[6] = Antiplatelet aggregatory activity against New Zealand white rabbit platelets preincubated for 2 to 3 mins followed by arachidonic acid-addition measured after 4 mins by turbidometric method; type: functional, cell-based, Oryctolagus cuniculus; settings: platelet
[7] = Cytotoxicity against mouse RAW264.7 cells assessed as cell viability at 25 ug/ml measured after 24 hrs in presence of LPS by MTT assay (reference value: 96.3 +/- 1%); type: toxicity; settings: read-out: Activity
RAW264.7 [8] = assay: Inhibition of LPS-induced NO production in mouse RAW264.7 cells at 1.562 ug/ml measured after 24 hrs by Griess assay relative to LPS-treated control; type: functional; settings: RAW264.7, 24 h
[9] = Antiplatelet aggregatory activity against New Zealand white rabbit platelets at 100 uM preincubated for 2 to 3 mins followed by ADP-addition measured after 4 mins by turbidometric method relative to vehicle control; type: functional, Oryctolagus cuniculus, Platelet
[10] = Cytotoxicity against mouse RAW264.7 cells assessed as cell viability at 1.562 ug/ml measured after 24 hrs in presence of LPS by MTT assay (reference value: 96.3 +/- 1%); type: toxicity; settings: read-out: Activity
RAW264.7 [11] = assay: Inhibition of LPS-induced NO production in mouse RAW264.7 cells measured after 24 hrs by Griess assay; type: functional, cell-based; settings: for IC50: RAW264.7, 24 h
[12] = Cytotoxicity against mouse RAW264.7 cells assessed as cell viability at 6.25 ug/ml measured after 24 hrs in presence of LPS by MTT assay (reference value: 96.3 +/- 1%); type: toxicity; settings: read-out: Activity
RAW264.7 [13] = assay: Inhibition of LPS-induced NO production in mouse RAW264.7 cells at 3.125 ug/ml measured after 24 hrs by Griess assay relative to LPS-treated control; type: functional; settings: RAW264.7, 24 h
[14] = Cytotoxicity against mouse RAW264.7 cells assessed as cell viability at 50 ug/ml measured after 24 hrs in presence of LPS by MTT assay (reference value: 96.3 +/- 1%); type: toxicity; settings: read-out: Activity
[15] = Cytotoxicity against mouse RAW264.7 cells assessed as cell viability at 3.125 ug/ml measured after 24 hrs in presence of LPS by MTT assay (reference value: 96.3 +/- 1%); type: toxicity; settings: read-out: Activity
[16] = Antiplatelet aggregatory activity against New Zealand white rabbit platelets at 100 uM preincubated for 2 to 3 mins followed by PAF-addition measured after 4 mins by turbidometric method relative to vehicle control; type: functional, Oryctolagus cuniculus, Platelet
RAW264.7 [17] = assay: Inhibition of LPS-induced NO production in mouse RAW264.7 cells at 12.5 ug/ml measured after 24 hrs by Griess assay relative to LPS-treated control; type: functional; settings: RAW264.7, 24 h
RAW264.7 [18] = assay: Inhibition of LPS-induced NO production in mouse RAW264.7 cells at 25 ug/ml measured after 24 hrs by Griess assay relative to LPS-treated control; type: functional; settings: RAW264.7, 24 h
[19] = Cytotoxicity against mouse RAW264.7 cells assessed as cell viability at 1.563 ug/ml measured after 24 hrs in presence of LPS by MTT assay (reference value: 96.3 +/- 1%); type: toxicity; settings: read-out: Activity
RAW264.7 [20] = assay: Inhibition of LPS-induced NO production in mouse RAW264.7 cells at 1.563 ug/ml measured after 24 hrs by Griess assay relative to LPS-treated control; type: functional; settings: RAW264.7, 24 h
[21] = Antiplatelet aggregatory activity against New Zealand white rabbit platelets at 50 uM preincubated for 2 to 3 mins followed by arachidonic acid -addition measured after 4 mins by turbidometric method relative to vehicle control; type: functional, Oryctolagus cuniculus, Platelet

| IC50 (RAW264.7 [11]) | Compound | inhibition at 6.25 µg/mL (RAW264.7 [2]) | viability at 24 h, 12.5 ug/ml [4] | Activity [5] | viability at 24 h, 25 ug/ml [7] | Activity [9] | inhibition (RAW264.7 [11]) | viability at 24 h, 6.25 ug/ml [12] | inhibition at 3.125 µg/mL (RAW264.7 [13]) | viability at 24 h, 50 ug/ml [14] | viability at 24 h, 3.125 ug/ml [15] | Activity [16] | inhibition at 12.5 µg/mL (RAW264.7 [17]) | also measured |
| --- | --- | --- | --- | --- | --- | --- | --- | --- | --- | --- | --- | --- | --- | --- |
|  | CCCCCCCCCCCCCCCCCCNC(=O)OCC(COP(=O)([O-])OCC[n+]1ccsc1)OC (centres undefined) |  |  |  |  |  |  |  |  |  |  |  |  | Activity [1]: 85.96% |
|  | C=C(C)C(O)CC[C@]1(C)C=Cc2c(cc3oc(-c4ccc(O)cc4)cc(=O)c3c2O)O1 (some centres undefined) |  |  | <60% |  | <60% |  |  |  |  |  | <60% |  |  |
| > 25 µg/mL | CC(C)=CCC/C(C)=C/Cc1c(-c2ccc(O)cc2O)oc2c(CC=C(C)C)c(O)cc(O)c2c1=O | 33.7% | 97.1% | 89.66% | 96.8% | 96.37% | Dose-dependent effect | 99.7% | 30% | 67% | 100% | 90.15% | 34.1% | inhibition at 25 µg/mL (RAW264.7 [18]): 35% |
| 2.4 µg/mL (≈ 4.76 µM) | CC(=O)Oc1ccc(-c2oc3c4c(cc(O)c3c(=O)c2CC=C(C)C)OC(C)(C)C=C4)c(OC(C)=O)c1 | 69.2% | 36.6% | 90.01% | 13.9% | 93.27% | Dose-dependent effect | 80.3% | 58.7% | 11.7% | 91% | 90.22% |  | viability at 24 h, 1.563 ug/ml [19]: 96%; pIC50 [3]: 4.99; inhibition at 1.563 µg/mL (RAW264.7 [20]): 40.4% |
|  | C=C(C)C(=O)c1c(-c2ccc(O)cc2O)oc2cc3c(c(O)c2c1=O)C=CC(C)(C)O3 |  |  | <60% |  | <60% |  |  |  |  |  | <60% |  |  |
|  | CC(=O)Oc1ccccc1C(=O)O [ASPIRIN] |  |  |  |  |  |  |  |  |  |  |  |  | Activity [21]: 90.62% |
| 4.5 µg/mL (≈ 10.8 µM) | CC(C)=CC1Oc2cc(O)ccc2-c2oc3c4c(cc(O)c3c(=O)c21)OC(C)(C)C=C4 (centres undefined) [CYCLOMORUSIN] | 54.1% | 81.9% | <60% | 57.6% | <60% | Dose-dependent effect | 86.2% | 46.6% | 14% | 86.3% | <60% | 73.7% |  |
| 4.1 to 4.6 µg/mL (≈ 9.35 to 10.5 µM) | CC(C)(O)CCc1c(-c2ccc(O)cc2O)oc2c3c(cc(O)c2c1=O)OC(C)(C)C=C3 [MORUSINOL] | 59 to 62.5% | 69.5 to 82.1% | 50.5% | 36.9 to 49.2% | 57.88 - 78.98% | Dose-dependent effect | 81.9 to 91.3% | 42 to 45.8% | 9.9 to 14.4% | 95.9% | <60% | 81.4% |  |
| > 12.5 µg/mL | CC(C)=CCc1c(-c2ccc(O)cc2O)oc2c3c(cc(O)c2c1=O)OC(C)(C)C=C3 [MORUSIN] | 23.3% | 73.8% | <60% | 69.6% | 60.22% | Dose-dependent effect | 83.3% | 15.1% | 23.1% | 94.5% | <60% | 39.3% |  |
| 6.3 µg/mL (≈ 14.4 µM) | CC1(C)C=Cc2c(cc(O)c3c(=O)c4c(oc23)-c2ccc(O)cc2OC(C(C)(C)O)C4)O1 (centres undefined) [NEOCYCLOMORUSIN] | 50.8% | 48.8% | 99.7% | 40.8% | 98.57% | Dose-dependent effect | 82.4% | 41.2% | 12.8% | 98.3% | 99.63% |  |  |

| Compound | IC50 (RAW264.7 [11]) | inhibition at 6.25 µg/mL (RAW264.7 [2]) | viability at 24 h, 12.5 ug/ml [4] | Activity [5] | viability at 24 h, 25 ug/ml [7] | Activity [9] | inhibition (RAW264.7 [11]) | viability at 24 h, 6.25 ug/ml [12] | inhibition at 3.125 µg/mL (RAW264.7 [13]) | viability at 24 h, 50 ug/ml [14] | viability at 24 h, 3.125 ug/ml [15] | Activity [16] | inhibition at 12.5 µg/mL (RAW264.7 [17]) | also measured |
| --- | --- | --- | --- | --- | --- | --- | --- | --- | --- | --- | --- | --- | --- | --- |
| O=[N+]([O-])/C=C\c1ccc(O)cc1 | 2.1 µg/mL (≈ 12.7 µM) | 60% | 48.3% | 96.03% | 46.9% | 96.35% | Dose-dependent effect | 82.2% | 59.6% | 11.9% | 89% | 73.02% |  | pIC50 [3]: 5.01; pIC50 [6]: 5.01; inhibition at 1.562 µg/mL (RAW264.7 [8]): 46.4%; viability at 24 h, 1.562 ug/ml [10]: 94.5% |
